# Experimental data reported in article PMC8391104, “Molecular mechanism of Mad1 kinetochore targeting by phosphorylated Bub1” (EMBO Reports, 2021).
# Changes are numbered by the printed parent chain. Where a SMILES comes first, the peptide text is derived from it. [ ]: non-standard residue; d: D form. pT = C[C@@H](OP(=O)(O)O)[C@H](N)C(=O)O; pS = N[C@@H](COP(=O)(O)O)C(=O)O
# Key:
# [1] = design: method as in Zhang et al, 2017; conditions: ref Zhang et al, 2017; cited from earlier work
# 15N-labelled Mad1^CTD = assay: NMR titration (1H,15N HSQC) of Bub1^CD1 peptides into 15N-labelled Mad1^CTD; format: binding, human; conditions: 298K, 50 mM HEPES pH 7.0, 100 mM NaCl, 2 mM TCEP, 0.02% NaN3
# Procedure: Isotopically labelled Mad1^CTD was expressed in M9 minimal media (6 g/l Na2HPO4, 3 g/l KH2PO4, 0.5 g/l NaCl) supplemented with 1.7 g/l yeast nitrogen base without NH4Cl and amino acids (Sigma Y1251). 1 g/l ^15NH4Cl and 4 g/l unlabelled glucose were supplemented for ^15N labelling. For the deuteration of nonlabile sidechain protons, cells were adapted for growth in 10, 44 and 78% deuterated media on agar plates before they were grown in large cultures supplemented with 1 g/l ^15NH4Cl and 4 g/l ^2H^13C‐glucose in 99% D2O (Sigma). Prior to NMR experiments, isotopically labelled Mad1^CTD and Bub1^CD1 peptide were dialysed into 25 mM HEPES, pH 7.0, 100 mM NaCl, 1 mM TCEP.
# ^1H‐detected experiments were performed on 600 and 800 MHz Avance III spectrometers, both equipped with triple resonance TCI CryoProbes (Bruker). ^31P 1D NMR spectra were recorded on a 500 MHz Avance II spectrometer equipped with a broadband BBO cryoprobe (Bruker). All spectra were collected in 50 mM HEPES, pH 7.0, 100 mM NaCl, 2 mM TCEP, 0.02% NaN3 at 298K. […] Secondary chemical shifts were calculated from the differences between observed Cα/Cβ chemical shifts and Cα/Cβ chemical shifts for random coils (Kjaergaard & Poulsen, [2011]). […]
# [2] = target: T1, human Mad1^CTD (WT) homodimer (Homo sapiens, UniProt Q9Y6D9); assay: ITC of Bub1^CD1 peptides binding to wild-type Mad1^CTD; conditions: for binding to Mad1^CTD by ITC, in words: pH 7.5, Mad1^CTD WT
# T1 construct: human Mad1^CTD homodimer (residues 597–718); double Strep His6-tag with TEV site (N, cleaved yes); made in house; host or cells: E. coli Rosetta 2 (DE3)
# T1 sequence (Q9Y6D9 597-718): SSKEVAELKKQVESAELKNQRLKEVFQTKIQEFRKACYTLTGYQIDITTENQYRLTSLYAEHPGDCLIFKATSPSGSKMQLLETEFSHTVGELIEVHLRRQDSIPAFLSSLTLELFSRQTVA
# Text: (§1) The coding region of Mad1^597–719 was cloned by USER® (NEB) into a modified pRSFDuet‐1 vector (71341‐3, Sigma‐Aldrich) with an N‐terminal double Strep His6‐tag, followed by a tobacco etch virus (TEV) protease cleavage site (Demple & Linn, [1982]; Bitinaite et al, [1992]). Mad1 mutants were generated using the QuikChange™ Lightning Site‐Directed Mutagenesis Kit (Agilent), developed by Stratagene Inc. (La Jolla, CA) (Nøhr & Kristiansen, [2003]). Mad1 constructs were transformed into Rosetta™ 2 (DE3) Singles™ Competent Cells (71400, Novagen) for expression. Expression was induced with 0.5 mM IPTG and grown overnight at 18°C. Cells were lysed in 25 mM HEPES pH 8.1, 250 mM NaCl, 2 mM DTT, 5% glycerol, 2 mM EDTA supplemented with lysozyme, and Complete™ EDTA‐free protease inhibitors (Roche). Proteins were purified over a Strep‐Tactin Superflow Plus column (QIAGEN) and cleaved with TEV protease overnight at 4°C. The cleaved Mad1^CTD was then diluted to 50 mM NaCl, purified over an anion exchange (Resource Q, GE Healthcare) column, followed by size exclusion chromatography using a Superdex 75 Increase column (GE Healthcare). Mad1^CTD was concentrated to 35 mg/ml in a buffer of 20 mM HEPES pH 7.5, 100 mM NaCl and 1 mM TCEP.
# Bub1^CD1 peptides were ordered from Designer Bioscience UK, at 95% purity. The full peptide sequence used in this study was (W)KVQP{pS}P{pT}VHTKEALGFIMNMFQAPTS. (W) = peptide with an additional N‐terminal tryptophan was used to confirm peptide concentration in stoichiometry studies.
# Isothermal titration calorimetry (ITC) was performed using an Auto‐iTC200 instrument (Malvern Instruments, Malvern, UK) at 20°C. Mad1^CTD and Bub1^CD1 peptide mutants were dialysed into 20 mM HEPES pH 7.5, 100 mM NaCl, 1 mM TCEP. For each titration between 30–100 µM of Mad1 was pipetted into the calorimeter cell. The Bub1^CD1 peptides at 0.3–1.5 mM were titrated into the cell consisting of one 0.5 µl injection followed by 19 injections of 2 µl each. The changes in the heat released were integrated over the entire titration and fitted to a single‐site binding model using the MicroCal PEAQ‐ITC Analysis Software 1.0.0.1258 (Malvern Instruments). Titrations were performed in triplicate. Calculations for stoichiometry were based on the molar concentrations of dimeric Mad1^CTD.
# [3] = 1H 1D NMR of free Bub1^CD1 peptides (conformation); format: physicochemical; conditions: narrow dispersion of amide peaks, not bound to Mad1
# Procedure: ^1H‐detected experiments were performed on 600 and 800 MHz Avance III spectrometers, both equipped with triple resonance TCI CryoProbes (Bruker). ^31P 1D NMR spectra were recorded on a 500 MHz Avance II spectrometer equipped with a broadband BBO cryoprobe (Bruker). All spectra were collected in 50 mM HEPES, pH 7.0, 100 mM NaCl, 2 mM TCEP, 0.02% NaN3 at 298K. Standard ^2H decoupled TROSY‐based triple resonance experiments were used for backbone resonance assignments: HNCO, HN(CA)CO, HNCA, HN(CO)CA, HNCACB, HN(CO)CACB and HN(COCA)NNH (Pervushin, [2020]). Backbone datasets were collected with 20–25% non‐uniform sampling and reconstructed using compressed sensing in MddNMR (Mayzel et al, [2014]). Topspin 3.6 (Bruker) was used for processing and NMRFAM‐Sparky 1.47 for data analysis (Lee et al, [2015]). Backbone assignments were obtained in Mars (Jung & Zweckstetter, [2004]). Secondary chemical shifts were calculated from the differences between observed Cα/Cβ chemical shifts and Cα/Cβ chemical shifts for random coils (Kjaergaard & Poulsen, [2011]). […]
# Peptide solubility = format: physicochemical; conditions: Hepes buffer, aqueous buffer; 20 mM Hepes, pH 7.5, 100 mM NaCl, 1 mM TCEP, without DMSO; read-out: solubility
# Procedure: Our ITC and sedimentation equilibrium experiments to measure the stoichiometry of the Mad1^CTD‐Bub1^CD1 interaction were performed with concentrations of Mad1 at 100 µM or lower, and titrating Bub1 until a twofold‐fourfold molar excess was obtained. However, our ^31P NMR experiments were conducted with around 0.25 to 0.5 mM of each, and still only one binding event was detected. […] DMSO interfered with ITC enthalpy changes and the NMR signal from DMSO obscured the protein peaks. In contrast, our Mad1^CTD‐Bub1^CD1 crystal structure was obtained through co‐crystallization of Mad1^CTD at a final concentration of 0.35 mM and Bub1^CD1 at 2.5 mM in 5% DMSO. The use of millimolar concentrations of peptide, and the presence of DMSO and isopropanol, required for Mad1^CTD‐Bub1^CD1 crystallization, may explain the association of a second peptide in the crystallized complex. […]
# which are affected are already mapped out in Fig 5B, and this can be tracked across Bub1CD1 […]
# We thank the reviewer for their positive and constructive comments.
# 1) On page 2, the first line of the third paragraph, Msp1 should be Mps1.
# Response: Thank you, we have corrected this error.
# 2) Please provide a figure to show the omit map (2Fo−Fc map) for the BUB1 CD1 peptide.
# Response: We have created a 2Fo-Fc omit map and included it in Fig EV2D and updated the figure legend accordingly. […]
# 2) p. 5, near bottom. The authors state that the singly phosphorylated Bub1 peptide (on Thr-461) is less soluble than the double phosphorylated peptide (also phosphorylated on Ser-459), which may explain previous reports that P-Ser-459 contributes to binding Mad1-CTD. It would be helpful if the authors could quantify this reduced solubility.
# Response: We realise that our comment on the reduced solubility of the singly phosphorylated pT461 peptide is likely confusing, so we have removed this comment.
# In terms of quantifying the reduced solubility, we observed an approximately 2-fold reduction of the solubility of the singly phosphorylated peptide. […]
# Mad1^CTD Q627A = target: T2, Mad1^CTD Q627A (Homo sapiens, UniProt Q9Y6D9, Q627A); assay: ITC, Mad1^CTD Q627A; format: binding; conditions: 20°C, pH 7.5, Q627A, average of at least three experiments ± SD
# T2 construct: human Mad1^CTD homodimer (residues 597–718); double Strep His6-tag with TEV site (N, cleaved yes); made in house; host or cells: E. coli Rosetta 2 (DE3)
# T2 sequence (Q9Y6D9 597-718 Q627A limits assumed): T1 sequence (Q9Y6D9 597-718) with Q31A
# Text: as §1
# (§2) Isothermal titration calorimetry (ITC) was performed using an Auto‐iTC200 instrument (Malvern Instruments, Malvern, UK) at 20°C. […]
# Mad1^CTD R630A = target: T3, Mad1^CTD R630A (Homo sapiens, UniProt Q9Y6D9, R630A); assay: ITC, Mad1^CTD R630A; format: binding; conditions: 20°C, pH 7.5, R630A, average of at least three experiments ± SD
# T3 construct: human Mad1^CTD homodimer (residues 597–718); double Strep His6-tag with TEV site (N, cleaved yes); made in house; host or cells: E. coli Rosetta 2 (DE3)
# T3 sequence (Q9Y6D9 597-718 R630A limits assumed): T1 sequence (Q9Y6D9 597-718) with R34A
# Text: as §1, §2
# Mad1^CTD K614A = target: T4, Mad1^CTD K614A (Homo sapiens, UniProt Q9Y6D9, K614A); assay: ITC, Mad1^CTD K614A; format: binding; conditions: 20°C, pH 7.5, K614A, average of at least three experiments ± SD
# T4 construct: human Mad1^CTD homodimer (residues 597–718); double Strep His6-tag with TEV site (N, cleaved yes); made in house; host or cells: E. coli Rosetta 2 (DE3)
# T4 sequence (Q9Y6D9 597-718 K614A limits assumed): T1 sequence (Q9Y6D9 597-718) with K18A
# Text: as §1, §2
# Mad1^CTD K619A = target: T5, Mad1^CTD K619A (Homo sapiens, UniProt Q9Y6D9, K619A); assay: ITC, Mad1^CTD K619A; format: binding; conditions: 20°C, pH 7.5, K619A, average of at least three experiments ± SD
# T5 construct: human Mad1^CTD homodimer (residues 597–718); double Strep His6-tag with TEV site (N, cleaved yes); made in house; host or cells: E. coli Rosetta 2 (DE3)
# T5 sequence (Q9Y6D9 597-718 K619A limits assumed): T1 sequence (Q9Y6D9 597-718) with K23A
# Text: as §1, §2
# [4] = target: T6, Mad1^CTD QRRI** (Q627A, R650A, I643A, R630A) (Homo sapiens, UniProt Q9Y6D9, I643A/Q627A/R630A/R650A); assay: ITC, Mad1^CTD QRRI** quadruple mutant; format: binding; conditions: 20°C, pH 7.5, QRRI**, average of at least three experiments ± SD
# T6 construct: human Mad1^CTD homodimer (residues 597–718); double Strep His6-tag with TEV site (N, cleaved yes); made in house; host or cells: E. coli Rosetta 2 (DE3)
# T6 sequence (Q9Y6D9 597-718 Q627A/R630A/I643A/R650A limits assumed): T1 sequence (Q9Y6D9 597-718) with Q31A, R34A, I47A, R54A
# Text: as §1, §2
molecule,measurement,setting,value
"CD1: non‐phosphorylated Bub1^CD1 peptide (KVQPSPTVHTKEALGFIMNMFQAPTS; phosphoserine at 459, phosphothreonine at 461)","conformation of unbound peptide by circular dichroism, in words",[1],unstructured but might have helical propensity that is increased with Thr461 phosphorylation
same,"binding by NMR titration, in words",15N-labelled Mad1^CTD,failed to reveal Bub1‐Mad1 interactions
same,"binding to Mad1^CTD by ITC, in words",[2]; 20°C,no binding
same,"binding to Mad1^CTD by ITC, in words","[2]; 20°C, listed as unphosphorylated Bub1^CD1 peptide",complete absence of interactions
same,"conformation of free peptide, in words",[3],unstructured when not bound to Mad1
CC[C@H](C)[C@H](NC(=O)[C@H](Cc1ccccc1)NC(=O)CNC(=O)[C@H](CC(C)C)NC(=O)[C@H](C)NC(=O)[C@H](CCC(=O)O)NC(=O)[C@H](CCCCN)NC(=O)[C@@H](NC(=O)[C@H](Cc1c[nH]cn1)NC(=O)[C@@H](NC(=O)[C@@H](NC(=O)[C@@H]1CCCN1C(=O)[C@H](COP(=O)(O)O)NC(=O)[C@@H]1CCCN1C(=O)[C@H](CCC(N)=O)NC(=O)[C@@H](NC(=O)[C@@H](N)CCCCN)C(C)C)[C@@H](C)OP(=O)(O)O)C(C)C)[C@@H](C)O)C(=O)N[C@@H](CCSC)C(=O)N[C@@H](CC(N)=O)C(=O)N[C@@H](CCSC)C(=O)N[C@@H](Cc1ccccc1)C(=O)N[C@@H](CCC(N)=O)C(=O)N[C@@H](C)C(=O)N1CCC[C@H]1C(=O)N[C@H](C(=O)N[C@@H](CO)C(=O)O)[C@@H](C)O [pSpT CD1] (H-KVQP[pS]P[pT]VHTKEALGFIMNMFQAPTS-OH),solubility,Peptide solubility,≥ 1500 µM
same,Kd,Mad1^CTD Q627A,2.4 ± 0.4 µM
same,Kd,Mad1^CTD R630A,10.1 ± 1.3 µM
same,Kd,Mad1^CTD K614A,2.4 ± 0.43 µM
same,Kd,"[2]; 20°C, 20 mM HEPES pH 7.5, 100 mM NaCl, 1 mM TCEP, 30–100 µM Mad1 in cell, 0.3–1.5 mM peptide, single-site model, average of at least three experiments ± SD",2.7 ± 1.2 µM
same,KD at lowered peptide concentration,"[2]; lowered concentration of doubly phosphorylated peptide (usual: 100 µM Mad1CTD, 1 mM peptide)",same KD
same,Kd,Mad1^CTD K619A,10.1 ± 5.4 µM
same,Kd,[4],24.9 ± 1.3 µM
